Measured values published in patent publication US6270780A, “Cosmetic compositions containing resveratrol” (Chesebrough-Pond's USA Co., division of Conopco, priority 1998, dated 2001).
Where two headings read alike, the source gives them in different places.

Experiments:
[1] = system: Normal human keratinocytes; assay: 3H-thymidine incorporation (DNA synthesis) / proliferation of keratinocytes; assay type: cell-based
Text: The incorporation of ^3 H-thymidine by cultured cells was used as an assay of cell proliferation (both for ZR75 cells and for keratinocytes). Thymidine is one of four deoxynucleosides which are the monomeric units of DNA. Prior to cell division of a somatic cell, the complete genome of the cell undergoing cell division is replicated. This involves large scale DNA synthesis by the cell and enables both daughter cells to receive identical copies of the genetic material. When ^3 H-thymidine is included in the culture media of cells which are synthesizing DNA in preparation for cell division then the labeled thymidine is incorporated into the newly synthesized DNA. The extent of incorporation of ^3 H-thymidine into a population of cells is proportional to the rate of DNA synthesis by this population of cells and therefore an indication of their cellular proliferation.
1. Normal human keratinocytes isolated from neonatal foreskins by trypsin treatment were grown in Dulbecco's modified Eagle's medium (DME)/5% fetal calf serum in the presence of mitomycin C treated 3T3 mouse fibroblasts for establishing dividing keratinocyte colonies. Keratinocytes were grown under the above condition until their third passage.
2. For the experiments, third passage keratinocytes were plated into a serum-free keratinocyte growth medium (KGM; obtained from Clonetics, San Diego, Calif.) containing 0.09 mM calcium. About 30,000 cells were plated into each well of 6 well cell culture plates and grown for 5 days, until the cells reach about 40% confluence.
3. Medium was changed to fresh medium (KBM; obtained from Clonetics) and resveratrol at various concentrations as indicated in Table 2 was added to the medium from a DMSO (Dimethylsulfoxide) stock solution. The final DMSO concentration in the cultures was 0.1%. Control cultures received no resveratrol but were dosed with 0.1% DMSO. Each concentration was tested in three separate wells. After four hours, 1 μCi of ^3 H-thymidine (Amersham Corp., Sp activity 40 Ci/mmol) was added to 1 ml of medium in each well. The cells were incubated for 2 hours. The amount of ^3 H-thymidine associated with the cellular DNA of keratinocytes was assessed as described below.
4. The medium was aspirated, and the wells washed with 1 ml PBS. The DNA and proteins of the cells in the plate were then precipitated by adding 1 ml of ice-cold 10% TCA. The plates were left on ice for 30 minutes to complete the precipitation process. TCA was then aspirated and each well was then washed 4 times with 5% TCA. The cells in the wells were dissolved in 0.5 ml of […] sodium hydroxide. 200 μl was then transferred to a scintillation vial for assessing thymidine incorporation and 25 μl was used for a protein assay using BCA protein assay reagent as described below. 5 ml of a scintillation fluid (Scintiverse) was added to the rest of the solution in the vial, and the vials were counted in a scintillation counter to determine the amount of radioactivity in each vial.
BCA (Bicinchoninic Acid)--Protein Assay
25 μl of cell suspension were placed in a 96 well plate. Standards of BSA (bovine serum albumin) in 0.1N Sodium Hydroxide were also pipetted in triplicate in the same 96 well plate. Pierce BCA protein assay reagent was added (200 μl/well) and plate was incubated for 2 hours at room temperature. Absorbance was read at a wavelength of 570 nm on a Dynatech MR7000 plate reader.
The DNA synthesis rate was then calculated as cpm ^3 H-thymidine incorporated into total cellular DNA/μg of cell protein for each individual well. Mean and standard deviation for each group were also calculated. These numbers were also expressed as percent of control wells. Each data point is expressed as mean of triplicate wells±standard deviation.
The results that were obtained are summarized in Table 2. p values of less than […] were considered to indicate statistical significance.
Example 2 was repeated at various additional concentrations of resveratrol.

[2] = Cell viability of B16 cells by neutral red dye uptake; assay type: cell-based; details: mouse, b16 f1 cells
Description: In order to ensure that melanin inhibition was not simply due to cell killing, cell viability was assessed by neutral red dye uptake. After the removal of media, 200 μL of pre-warmed medium containing 25 μg/ml neutral red dye was added to each well and incubated for 3 hours. Cells were washed 2× with PBS. The dye was extracted by adding […] of 50 H2O: 49 ethanol: 1 acetic acid and then gently shaken at room temperature for 20 minutes. The dye was quantified by reading the absorbance at 530 nm. Only viable cells are expected to take up the dye and the absorbance is directly proportional to the number of viable cells surviving the treatment.
For each treatment, the average of four replicate readings was calculated and expressed as percent of the average for the untreated control.

[3] = system: human promyelocytic leukemia cells; details: Jang et al., Science 275: 218-220, 1997; cited from earlier work
[4] = system: cyclo-oxygenase; details: known; cited from earlier work

## Oc1ccc(/C=C/c2cc(O)cc(O)c2)cc1 [Resveratrol, 3,4'5-stilbenetriol]
[1]; Homo sapiens, Keratinocyte, Table 2 Experiment 1, 50 μM
  inhibition at 50 µM: 98%
[1]; Homo sapiens, Keratinocyte, Table 2 Experiment 2, 0.78 μM
  inhibition at 0.78 µM: 33%
[1]; Homo sapiens, Keratinocyte, Table 2 Experiment 2, 1.56 μM, read-out: % inhibition (DNA synthesis)
  inhibition at 1.56 µM: 48%
[1]; Homo sapiens, Keratinocyte, Table 2 Experiment 2, 3.12 μM
  inhibition at 3.12 µM: 70%
[1]; Homo sapiens, Keratinocyte, Table 2 Experiment 2, 6.25 μM
  inhibition at 6.25 µM: 86%
[1]; Homo sapiens, Keratinocyte, Table 2 Experiment 2, 12.5 μM
  inhibition at 12.5 µM: 94%
[1]; Homo sapiens, Keratinocyte, Table 2 Experiment 2, 25 μM
  inhibition at 25 µM: 97%
[1]; Homo sapiens, Keratinocyte, Table 2 Experiment 2, 50 μM
  inhibition at 50 µM: 97%
[1]; Homo sapiens, Keratinocyte, Table 3, 0.1 μM
  inhibition at 0.1 µM: 5%
[1]; Homo sapiens, Keratinocyte, Table 3, 0.2 μM
  inhibition at 0.2 µM: 12%
[1]; Homo sapiens, Keratinocyte, Table 3, 0.3 μM
  inhibition at 0.3 µM: 7%
[1]; Homo sapiens, Keratinocyte, Table 3, 0.4 μM
  inhibition at 0.4 µM: 14%
[1]; Homo sapiens, Keratinocyte, Table 3, 0.6 μM
  inhibition at 0.6 µM: 6%
[1]; Homo sapiens, Keratinocyte, Table 3, 0.8 μM
  inhibition at 0.8 µM: 30%
[1]; Homo sapiens, Keratinocyte, Table 3, 1.0 μM
  inhibition at 1 µM: 40%
[1]; Homo sapiens, Keratinocyte, Table 3, 2.0 μM
  inhibition at 2 µM: 59%
[1]; Homo sapiens, Keratinocyte, 1.56 μM, read-out: reduced keratinocyte proliferation
  inhibition at 1.56 µM: ~50%
[1]; Table 2 Experiment 1, 50 μM
  DNA synthesis (cpm/μg protein): 0.62 ± 0.09 cpm/μg protein
[1]; Table 2 Experiment 2, 0.78 μM
  DNA synthesis (cpm/μg protein): 11.57 ± 1.7 cpm/μg protein
[1]; Table 2 Experiment 2, 1.56 μM
  DNA synthesis (cpm/μg protein): 8.89 ± 1.12 cpm/μg protein
[1]; Table 2 Experiment 2, 3.12 μM
  DNA synthesis (cpm/μg protein): 5.11 ± 0.27 cpm/μg protein
[1]; Table 2 Experiment 2, 6.25 μM
  DNA synthesis (cpm/μg protein): 2.45 ± 0.56 cpm/μg protein
[1]; Table 2 Experiment 2, 12.5 μM
  DNA synthesis (cpm/μg protein): 1.07 ± 0.11 cpm/μg protein
[1]; Table 2 Experiment 2, 25 μM
  DNA synthesis (cpm/μg protein): 0.58 ± 0.05 cpm/μg protein
[1]; Table 2 Experiment 2, 50 μM
  DNA synthesis (cpm/μg protein): 0.44 ± 0.12 cpm/μg protein
[1]; Table 3, 0.1 μM
  DNA synthesis (cpm/μg protein): 60.4 ± 4.1 cpm/μg protein
[1]; Table 3, 0.2 μM
  DNA synthesis (cpm/μg protein): 56.3 ± 3.0 cpm/μg protein
[1]; Table 3, 0.3 μM
  DNA synthesis (cpm/μg protein): 58.8 ± 0.4 cpm/μg protein
[1]; Table 3, 0.4 μM
  DNA synthesis (cpm/μg protein): 54.2 ± 1.2 cpm/μg protein
[1]; Table 3, 0.6 μM
  DNA synthesis (cpm/μg protein): 59.3 ± 5.5 cpm/μg protein
[1]; Table 3, 0.8 μM
  DNA synthesis (cpm/μg protein): 44.4 ± 2.6 cpm/μg protein
[1]; Table 3, 1.0 μM
  DNA synthesis (cpm/μg protein): 37.7 ± 4.0 cpm/μg protein
[1]; Table 3, 2.0 μM
  DNA synthesis (cpm/μg protein): 25.7 ± 2.4 cpm/μg protein
[1]; both experiments, 50 μM
  inhibition of DNA synthesis: inhibited DNA synthesis completely
[1]; concentrations as low as 1.56 μM
  DNA synthesis of keratinocytes: decreased DNA synthesis of keratinocytes significantly
[1]; concentrations lower than 0.8 μm (0.000018 wt. %)
  reducing keratinocyte proliferation: not effective at reducing keratinocyte proliferation
[2]; 10 μM
  viability at 72 h, 10 µM: 94.6%
[2]; 25 μM
  viability at 72 h, 25 µM: 86.8%
[2]; 50 μM
  viability at 72 h, 50 µM: 69.2%
[2]; 100 μM
  viability at 72 h, 100 µM: 1.8%
[3]
  differentiation of human promyelocytic leukemia cells: induce differentiation of human promyelocytic leukemia cells
[4]
  cyclo-oxygenase inhibition: known cyclo-oxygenase inhibitor
